The values that follow are results of earlier work, collected in US9629875B2, “Clostridium difficile sporicidal compositions” (Microdermis Corporation, priority 2014, dated 2017).

SMILES strings stand for the structures.

The data set has as its system Bacillus subtilis. The settings on record: 0.1% L-alanine in the absence of sporicidal agents, after 4 hours.

Turning to `C[C@H](N)C(=O)O` [L-alanine], the “colony-forming unit (CFU) relative count” value was 116%.
